Measured values published in US20080076747A1, “Fungicidal Mixtures” (BASF AKTIENGESELLSCHAFT, priority 2004, published 2008).

Columns and labels:
Alternaria solani = assay: Activity against early blight of tomato caused by Alternaria solani; assay type: in vivo, Alternaria solani on tomato; conditions: 4 ppm; tomato cultivar Goldene Königin, sprayed 1 day before infection, rated after 5 days
Description: (§1) The active compounds were separately or jointly prepared as a stock solution comprising 25 mg of active compound which was made up to 10 ml using a mixture of acetone and/or DMSO and the emulsifier Uniperol® EL (wetting agent having emulsifying and dispersing action based on ethoxylated alkylphenols) in a volume ratio of solvent/emulsifier of 99 to 1. The mixture was then made up with water to 100 ml. This stock solution was diluted with the solvent/emulsifier/water mixture described to the concentration of active compounds stated below.
(§2) The visually determined percentages of infected leaf areas were converted into efficacies in % of the untreated control:
The efficacy (E) is calculated as follows using Abbot's formula: E=(1−α/β)·100 α corresponds to the fungicidal infection of the treated plants in % and β corresponds to the fungicidal infection of the untreated (control) plants in % […]
Leaves of potted plants of the cultivar “Goldene Königin” were sprayed to runoff point with an aqueous suspension having the concentration of active compound stated below. […] After 5 days, the disease on the untreated but infected control plants had developed to such an extent that the infection could be determined visually in %.

Pyrenophora teres = assay: Activity against net blotch of barley caused by Pyrenophora teres, protective application; assay type: in vivo, Pyrenophora [syn. Drechslera] teres on barley; conditions: barley seedlings, rated after 6 days
Description: as §1, §2
The efficacy (E) is calculated as follows using Abbot's formula: E=(1−α/β)·100 α corresponds to the fungicidal infection of the treated plants in % and β corresponds to the fungicidal infection of the untreated (control) plants in %
An efficacy of 0 means that the infection level of the treated plants corresponds to that of the untreated control plants; an efficacy of 100 means that the treated plants were not infected.
Leaves of potted barley seedlings were sprayed to runoff point with an aqueous suspension having the concentration of active compound stated below. After 5 days, the test plants were inoculated with an aqueous spore suspension of Pyrenophora [syn. Drechslera] teres, the net blotch pathogen. The test plants were then placed in a greenhouse at temperatures between 20 and 24° C. and 95 to 100% relative atmospheric humidity. After 6 days, the extent of the disease development was determined visually in % infection of the entire leaf area.

Botrytis cinerea = assay: Activity against the gray mold pathogen Botrytis cinerea in the microtiter test; assay type: cell-based; conditions: 1 ppm; microtiter plate, 405 nm, day 7 after inoculation
Excerpt: For the microtiter tests, the active compounds were formulated separately as a stock solution having a concentration of 10 000 ppm in DMSO.
In the microtiter tests, the measured parameters were offset with the growth of the active-compound-free control variant and the fungus- and active-compound-free blank value, in order to determine the relative growth in % of the pathogens in the individual active compounds.
The stock solutions were mixed according to the ratio, pipetted into a microtiter plate (MTP) and diluted to the stated active compound concentration using a malt-based aqueous nutrient medium for fungi. An aqueous spore suspension of Botrytis cinerea was then added. The plates were placed in a water vapor-saturated chamber at temperatures of 18° C. Using an absorption photometer, the MTPs were measured at 405 nm on day 7 after the inoculation.

## CO/C=C(/C(=O)OC)c1ccccc1CO/N=C(C)/C=C/c1ccc(Cl)cc1 [enestroburin (I), methyl 2-{2-[3-(4-chlorophenyl)-1-methylallylideneaminooxymethyl]phenyl}-3-methoxyacrylate]
Alternaria solani
  Observed activity (%): 22%
Pyrenophora teres; 63 ppm, sprayed 5 days before inoculation
  Observed activity (%): 56%
Botrytis cinerea
  Observed activity (%): 12%

## Cc1ccc(C(C)NC(=O)[C@@H](NC(=O)OC(C)C)C(C)C)cc1 (stereo partly drawn) [iprovalicarb (II-11), isopropyl [(1S)-2-methyl-1-(1-p-tolylethylcarbamoyl)propyl]carbamate]
Alternaria solani
  Observed activity (%): 0%

## manganese ethylenebis(dithiocarbamate) (polymer) complex zinc salt [mancozeb (II-1)]
Pyrenophora teres; 16 ppm, protective
  Observed activity (%): 0%
Pyrenophora teres; 250 ppm, protective
  Observed activity (%): 22%

## zinc ammoniate ethylenebis(dithiocarbamate) [metiram (II-4)]
Botrytis cinerea
  Observed activity (%): 7%
